Converted amounts (≈) assume the structure as drawn. Where two headings read alike, the source gives them in different places.
Assays:
P493-6 (myc "on") cells = assay: Cell proliferation assay (72 hrs, Cell Titer Glo or Viacount FACS); assay type: cell-based
Procedure: P493-6 (myc “on”) cells were maintained in growth media (RPMI-1640, 10% FBS, 2 mM glutamine, 100 units/ml Penicillin and 100 μg/ml streptomycin) at 37° C. with 5% CO2. For compound assay, P493-6 cells were plated in 96-well V-bottom plates on the day of compound addition in 50 μl of growth media at a cell density of 200,000 cells/ml (10,000 cells/well). Compounds were serially diluted in 100% DMSO at 200-times the final concentration. Compounds were diluted 100-fold into growth media and then 50 μl of this mixture was added to cell plates making the final concentration of DMSO 0.5%. Cells were incubated with compound for 72 hrs at 37° C. with 5% CO2 and analyzed for antiproliferative effects either by Cell Titer Glo (Promega) or FACS analysis using the Viacount (Millipore) kit on the Guava instrument.

[1] = molecular target: recombinant form of Glutaminase 1 (GAC) (Homo sapiens, UniProt O94925); assay: Recombinant enzyme assay (GAC, GDH-coupled absorbance, no preincubation); assay type: biochemical; settings: read-out: GAC Delta N2 IC50 no preinc
Procedure: Enzymatic reaction was started with the addition of 50 μL of enzyme solution (50 mM Tris-HCl pH 8.0, 0.2 mM EDTA, 150 mM K2HPO4, 0.1 mg/ml BSA, 1 mM DTT, 10 ppm antifoam, 4 units/ml GDH, 4 mM adenosine diphosphate, and 4 nM GAC) and read in a Molecular Devices M5 plate reader at 20° C. The plate reader was configured to read absorbance (λ=340 nm) in kinetic mode for 15 minutes. Data was recorded as milli-absorbance units per minute and slopes were compared to a control compound and a DMSO-only control on the same plate. Compounds with slopes less than the DMSO control were considered inhibitors and plate variability was assessed using the control compound.

[2] = Solubility (vortex mixed at room temperature, filtered, HPLC quantitation); assay type: physicochemical
Procedure: Ca. 1 mg portions of test article were combined with 120 μL solvent in wells of a 96×2 mL polypropylene plate. […] The contents of all wells were then filtered through a 0.45 μm GHP filter plate to yield clear filtrates. 5 μL of each filtrate was diluted into 100 μL DMF and vortex mixed to yield HPLC samples. Duplicate quantitation standards for each test article were prepared by diluting weighed portions of solid test article in measured volumes of DMF. 2 μL of each HPLC sample and quantitation standard were analyzed by HPLC using the method outlined in Table 5. Dissolved test article concentrations were calculated by peak area ratio against the appropriate quantitation standards.

[3] = read-out: Cell prolif P493 72 h IC50, P493 cells, 72 h
[4] = P493-6, read-out: Cell prolif P493 72 h IC50, P493 cells, 72 h
[5] = P493-6 (myc on) cells, 72 hrs, read-out: Cell prolif P493 IC50

Compound Cc1ccccc1C(C)C(=O)Nc1nnc(CCSCCc2nnc(NC(=O)C(C)c3ccccc3C)s2)s1 (stereo not shown) [Compound 262] has an IC50 (P493-6 (myc "on") cells; [3]) of 3100 nM.

For COc1ccccc1CC(=O)Nc1nnc(CCCCc2nnc(NC(=O)Cc3ccccc3OC)s2)s1 [Compound 264], the IC50 (P493-6 (myc "on") cells; [3]) was 10 nM.

Compound O=C(Cc1cccc(OCCN2CCOCC2)c1)Nc1nnc(CCSCc2nnc(NC(=O)Cc3cccc(OCCN4CCOCC4)c3)s2)s1 [Compound 267] has an IC50 (P493-6 (myc "on") cells; [3]) of 640 nM.

O=C(Cc1ccc2ncccc2c1)Nc1nnc(CCSCCc2nnc(NC(=O)Cc3ccc4ncccc4c3)s2)s1 [Compound 268] showed an IC50 (P493-6 (myc "on") cells; [3]) of 5400 nM.

In the case of O=C(Cc1ccc2ncccc2c1)Nc1nnc(CCCCc2nnc(NC(=O)Cc3ccc4ncccc4c3)s2)s1 [Compound 269], the IC50 (P493-6 (myc "on") cells; [3]) is reported as 520 nM.

Work on O=C(Cc1cccc(Br)c1)Nc1nnc(CCSCCc2nnc(NC(=O)Cc3cccc(Br)c3)s2)s1 [Compound 270] yielded an IC50 (P493-6 (myc "on") cells; [3]) of 850 nM.

In the case of CC(C(=O)Nc1nnc(CCCCc2nnc(NC(=O)C(C)c3ccccc3Cl)s2)s1)c1ccccc1Cl (stereo not shown) [Compound 274], the IC50 (P493-6 (myc "on") cells; [3]) is reported as 680 nM.

Work on CC(C)(C)OC(=O)N1CCN(Cc2cccc(CC(=O)Nc3nnc(CCSCc4nnc(NC(=O)Cc5cccc(CN6CCN(C(=O)OC(C)(C)C)CC6)c5)s4)s3)c2)CC1 [Compound 275] yielded an IC50 (P493-6 (myc "on") cells; [3]) of 340 nM.

With O=C(Cc1cccc(-n2cccn2)c1)Nc1nnc(CCCCc2nnc(NC(=O)Cc3cccc(-n4cccn4)c3)s2)s1 [Compound 285] the IC50 (P493-6 (myc "on") cells; [3]) was 140 nM.

Compound CCOc1ccccc1CC(=O)Nc1nnc(CCCCc2nnc(NC(=O)Cc3ccccc3OC)s2)s1 [Compound 300] has an IC50 [1] of 160 nM and an IC50 (P493-6 (myc "on") cells; [4]) of 160 nM.

For O=C(O)Cc1cccc(CC(=O)Nc2nnc(CCCCc3nnc(NC(=O)Cc4cccc(CC(=O)O)c4)s3)s2)c1 [Compound 313], the IC50 [1] was 270 nM and the IC50 (P493-6 (myc "on") cells; [3]) was 94000 nM.

CC(C)(C)OC(=O)Nc1cccc(CC(=O)Nc2nnc(CCCCc3nnc(NC(=O)Cc4cccc(NC(=O)OC(C)(C)C)c4)s3)s2)c1 [Compound 327] gave an IC50 (P493-6 (myc "on") cells; [3]) of 150 nM.

With Nc1cccc(CC(=O)Nc2nnc(CCCCc3nnc(NC(=O)Cc4cccc(N)c4)s3)s2)c1 [Compound 329] the IC50 [1] was 170 nM and the IC50 (P493-6 (myc "on") cells; [3]) was 450 nM.

In the case of O=C(Cc1ccccc1)Nc1ccc(CCCCc2nnc(NC(=O)Cc3cccc(O)c3)s2)nn1 [Compound 337], the IC50 [1] is reported as 76 nM.

In the case of O=C(Cc1cccc(Cn2cccn2)c1)Nc1nnc(CCCCc2nnc(NC(=O)Cc3cccc(Cn4cccn4)c3)s2)s1 [Compound 362], the IC50 (P493-6 (myc "on") cells; [3]) is reported as 54 nM.

In the case of O=C(Cc1cccc(-n2ccnc2)c1)Nc1nnc(CCCCc2nnc(NC(=O)Cc3cccc(-n4ccnc4)c3)s2)s1 [Compound 363], the IC50 (P493-6 (myc "on") cells; [3]) is reported as > 20000 nM.

With CCOC(=O)Nc1nnc(CCCCc2nnc(NC(=O)Cc3ccccc3)s2)s1 [Compound 369] the IC50 (P493-6 (myc "on") cells; [4]) was 1900 nM.

Work on CCCC(=O)OCN(C(=O)Cc1ccccc1)c1nnc(CCCCc2ccc(NC(=O)Cc3ccccc3)nn2)s1 [Compound 402] yielded a Solubility ([2]; 10% CrEL/50 mM cit) of 157 µg/mL (≈ 0.268 mM) and a Solubility ([2]; PEG400) of 30179 µg/mL (≈ 51.4 mM).

O=C(Cc1cccc(OC(F)(F)F)c1)Nc1ccc(CCCCc2nnc(NC(=O)C(O)c3cccc(Cl)c3)s2)nn1 (stereo not shown) [Compound 447] showed a Solubility ([2]; PG) of 8265 µg/mL (≈ 13.3 mM).

Work on CC1(CC(=O)Nc2ccc(CCCCc3nnc(NC(=O)Cc4cccc(CNC(=O)OC(C)(C)C)c4)s3)nn2)COC(C)(C)OC1 [Compound 529] yielded an IC50 (P493-6 (myc "on") cells; [5]) of 160 nM.

For CCCC(=O)OCN(C(=O)C(CO)c1cccc(CNC(=O)OC(C)(C)C)c1)c1nnc(CCCCc2ccc(NC(=O)Cc3ccccc3)nn2)s1 (stereo not shown) [Compound 567], the IC50 (P493-6 (myc "on") cells; [5]) was 21 nM.

For CC(C(=O)Nc1nnc(CCCCc2ccc(NC(=O)Cc3ccccc3)nn2)s1)c1ccc(F)c(CNC(=O)OC(C)(C)C)c1 (stereo not shown) [Compound 568], the IC50 (P493-6 (myc "on") cells; [5]) was 28 nM.

With O=C(Cc1cccc(OC(F)(F)F)c1)Nc1ccc(CCCCc2nnc(NC(=O)Cc3ccccc3)s2)nn1 [Compound 585] the Solubility ([2]; Capryol 90) was 1744 µg/mL (≈ 3.06 mM).

For CCNC(=O)CC(C)c1cccc(CC(=O)Nc2ccc(CCCCc3nnc(NC(=O)Cc4cccc(OC(F)(F)F)c4)s3)nn2)c1 (stereo not shown) [Compound 596], the IC50 (P493-6 (myc "on") cells; [5]) was 330 nM.

In the case of O=C(Cc1ccc(OC(F)(F)F)cc1)Nc1ccc(CCCCc2nnc(NC(=O)Cc3ccccc3)s2)nn1 [Compound 615], the IC50 (P493-6 (myc "on") cells; [5]) is reported as 12 nM.

For O=C(Cc1cccc(OC(F)(F)F)c1)Nc1ccc(CCCCc2nnc(NC(=O)Cn3c(CN4CCOCC4)nc4ccccc43)s2)nn1 [Compound 702], the IC50 (P493-6 (myc "on") cells; [5]) was 310 nM.

O=C(Cc1cccc(OC(F)(F)F)c1)Nc1ccc(CCCCc2nnc(NC(=O)[C@@H](O)c3ccccc3)s2)nn1 [Compound 703] gave a Solubility ([2]; 20% HPBCD/50 mM cit) of 651 µg/mL (≈ 1.11 mM).

Reference: patent US9938267B2, “Heterocyclic inhibitors of glutaminase” (Calithera Biosciences, Inc., priority 2011, dated 2018)
